In US7666890B2, “Synthesis and herbicidal activity of 1- (2-substituted benzo[d]thiazol-5-yl)-1H-1,2,4-triazol-5(4H)-one derivatives” (Huazhong Normal University, priority 2007, dated 2010):

Legend:
Assay in all cases: Test of herbicidal activities (greenhouse pot method)
Format in all cases: in vivo
Conditions in all cases: single dose 300 g ai./h, treated before/after germination, 15 days later, greenhouse pot
Amaranthus retroflexus = system: Amaranthus retroflexus
Description: (§1) Garden soil was collected from regions where no pesticide is used and mixed uniformly with mountain soil and organic humus soil at a volume ratio of 1:1:1.
(§2) Multiple flowerpots each having a diameter of 9.5 cm and a depth of 8 cm were filled with the soil mixture to 3/4 volume. After water was added to the soil and the soil was completely wet, seeds of three grass weeds and three broadleaf weeds were inserted into the flowerpots (10-15 seeds for each weed). After seeding, the seeds were covered with fine oil mixed with sand and having a thickness of 1-3 cm. After the soil absorbed enough water and became saturated, excess water at the bottom of the flowerpot was drained, and the seeds were placed in a greenhouse for growth.
(§3) The weeds were watered every day so as to keep relative humidity of the soil at approximately 80%, growing temperature of 15-30° C., and air humidity above 50%. As the grass weeds grew to a 2-leaf stage and the broadleaf weeds was in a leaf period, spraying operation […] was performed on the stems and leafs. Planting before germination was performed before spraying. Soil processing was performed before the seeds of the weeds emerged.
(§4) Six target weeds comprising three grass weeds: Echinochloa crusgalli, Digiatria sanguinalis, Setaria viridis, along with three broadleaf weeds: Brassica juncea, Amaranthus retroflexus, Chenopodium album were treated before/after germination using a so-called “greenhouse pot” method with a single dose. A treating dose was 300 g ai./h. The process was repeated three times, and a blank control was used.
(§5) A 3WPSHZ-500 type automatic spraying tower with a spraying area of 0.132 m^2, a spray volume of 10 mL, working pressure of 0.2 MPa, and a liquid volume of 40% of maximum was used. After treatment, the weeds were placed in a greenhouse at a temperature of 15-30° C. Reaction symptoms of the weeds were regularly observed, and 15 days later, five reaction levels were determined according to the following inhibition intervals: 90≦A≦100%; 80≦B<90%, 60≦C<80%; 50≦D<60%, E<50%.

Brassica juncea = system: Brassica juncea
Description: as §1, §2, §3, §4, §5

Chenopodium album = system: Chenopodium album
Description: as §1, §2, §3, §4, §5

Digiatria sanguinalis = system: Digiatria sanguinalis
Description: as §1, §2, §3, §4, §5

Echinochloa crusgalli = system: Echinochloa crusgalli
Description: as §1, §2, §3, §4, §5

Setaria viridis = system: Setaria viridis
Description: as §1, §2, §3, §4, §5

Cc1nn(-c2cc3nc(SCc4ccco4)sc3cc2F)c(=O)n1C(F)F [Compound 29]
Herbicidal activity Amaranthus retroflexus (inhibition level) (Amaranthus retroflexus): C (60 ≦ C < 80%) | Herbicidal activity Brassica juncea (inhibition level) (Brassica juncea): C (60 ≦ C < 80%) | Herbicidal activity Chenopodium album (inhibition level) (Chenopodium album): B (80 ≦ B < 90%) | Herbicidal activity Digiatria sanguinalis (inhibition level) (Digiatria sanguinalis): B (80 ≦ B < 90%) | Herbicidal activity Echinochloa crusgalli (inhibition level) (Echinochloa crusgalli): C (60 ≦ C < 80%) | Herbicidal activity Setaria viridis (inhibition level) (Setaria viridis): B (80 ≦ B < 90%)

Cc1nn(-c2cc3nc(SCc4ccccc4)sc3cc2F)c(=O)n1C [Compound 30]
Herbicidal activity Amaranthus retroflexus (inhibition level) (Amaranthus retroflexus): A (90 ≦ A ≦ 100%) | Herbicidal activity Brassica juncea (inhibition level) (Brassica juncea): D (50 ≦ D < 60%) | Herbicidal activity Chenopodium album (inhibition level) (Chenopodium album): C (60 ≦ C < 80%) | Herbicidal activity Digiatria sanguinalis (inhibition level) (Digiatria sanguinalis): B (80 ≦ B < 90%) | Herbicidal activity Echinochloa crusgalli (inhibition level) (Echinochloa crusgalli): E (E < 50%) | Herbicidal activity Setaria viridis (inhibition level) (Setaria viridis): B (80 ≦ B < 90%)

CSc1nc2cc(-n3nc(C)n(C)c3=O)c(F)cc2s1 [Compound 31]
Herbicidal activity Amaranthus retroflexus (inhibition level) (Amaranthus retroflexus): A (90 ≦ A ≦ 100%) | Herbicidal activity Brassica juncea (inhibition level) (Brassica juncea): B (80 ≦ B < 90%) | Herbicidal activity Chenopodium album (inhibition level) (Chenopodium album): C (60 ≦ C < 80%) | Herbicidal activity Digiatria sanguinalis (inhibition level) (Digiatria sanguinalis): A (90 ≦ A ≦ 100%) | Herbicidal activity Echinochloa crusgalli (inhibition level) (Echinochloa crusgalli): B (80 ≦ B < 90%) | Herbicidal activity Setaria viridis (inhibition level) (Setaria viridis): B (80 ≦ B < 90%)

Cc1nn(-c2cc3nc(SCc4cccc(Cl)c4)sc3cc2F)c(=O)n1C [Compound 32]
Herbicidal activity Amaranthus retroflexus (inhibition level) (Amaranthus retroflexus): A (90 ≦ A ≦ 100%) | Herbicidal activity Brassica juncea (inhibition level) (Brassica juncea): B (80 ≦ B < 90%) | Herbicidal activity Chenopodium album (inhibition level) (Chenopodium album): A (90 ≦ A ≦ 100%) | Herbicidal activity Digiatria sanguinalis (inhibition level) (Digiatria sanguinalis): A (90 ≦ A ≦ 100%) | Herbicidal activity Echinochloa crusgalli (inhibition level) (Echinochloa crusgalli): B (80 ≦ B < 90%) | Herbicidal activity Setaria viridis (inhibition level) (Setaria viridis): C (60 ≦ C < 80%)

CCCSc1nc2cc(-n3nc(C)n(C)c3=O)c(F)cc2s1 [Compound 33]
Herbicidal activity Amaranthus retroflexus (inhibition level) (Amaranthus retroflexus): A (90 ≦ A ≦ 100%) | Herbicidal activity Brassica juncea (inhibition level) (Brassica juncea): A (90 ≦ A ≦ 100%) | Herbicidal activity Chenopodium album (inhibition level) (Chenopodium album): B (80 ≦ B < 90%) | Herbicidal activity Digiatria sanguinalis (inhibition level) (Digiatria sanguinalis): A (90 ≦ A ≦ 100%) | Herbicidal activity Echinochloa crusgalli (inhibition level) (Echinochloa crusgalli): B (80 ≦ B < 90%) | Herbicidal activity Setaria viridis (inhibition level) (Setaria viridis): B (80 ≦ B < 90%)

Cc1nn(-c2cc3nc(S(=O)(=O)Cc4ccccc4)sc3cc2F)c(=O)n1C [Compound 34]
Herbicidal activity Amaranthus retroflexus (inhibition level) (Amaranthus retroflexus): B (80 ≦ B < 90%) | Herbicidal activity Brassica juncea (inhibition level) (Brassica juncea): D (50 ≦ D < 60%) | Herbicidal activity Chenopodium album (inhibition level) (Chenopodium album): C (60 ≦ C < 80%) | Herbicidal activity Digiatria sanguinalis (inhibition level) (Digiatria sanguinalis): A (90 ≦ A ≦ 100%) | Herbicidal activity Echinochloa crusgalli (inhibition level) (Echinochloa crusgalli): B (80 ≦ B < 90%) | Herbicidal activity Setaria viridis (inhibition level) (Setaria viridis): A (90 ≦ A ≦ 100%)

Cc1nn(-c2cc3nc(S(C)(=O)=O)sc3cc2F)c(=O)n1C [Compound 35]
Herbicidal activity Amaranthus retroflexus (inhibition level) (Amaranthus retroflexus): B (80 ≦ B < 90%) | Herbicidal activity Brassica juncea (inhibition level) (Brassica juncea): D (50 ≦ D < 60%) | Herbicidal activity Chenopodium album (inhibition level) (Chenopodium album): C (60 ≦ C < 80%) | Herbicidal activity Digiatria sanguinalis (inhibition level) (Digiatria sanguinalis): A (90 ≦ A ≦ 100%) | Herbicidal activity Echinochloa crusgalli (inhibition level) (Echinochloa crusgalli): C (60 ≦ C < 80%) | Herbicidal activity Setaria viridis (inhibition level) (Setaria viridis): A (90 ≦ A ≦ 100%)

Cc1nn(-c2cc3nc(S(=O)(=O)Cc4cccc(Cl)c4)sc3cc2F)c(=O)n1C [Compound 36]
Herbicidal activity Amaranthus retroflexus (inhibition level) (Amaranthus retroflexus): D (50 ≦ D < 60%) | Herbicidal activity Brassica juncea (inhibition level) (Brassica juncea): C (60 ≦ C < 80%) | Herbicidal activity Chenopodium album (inhibition level) (Chenopodium album): D (50 ≦ D < 60%) | Herbicidal activity Digiatria sanguinalis (inhibition level) (Digiatria sanguinalis): C (60 ≦ C < 80%) | Herbicidal activity Echinochloa crusgalli (inhibition level) (Echinochloa crusgalli): C (60 ≦ C < 80%) | Herbicidal activity Setaria viridis (inhibition level) (Setaria viridis): D (50 ≦ D < 60%)

Cc1nn(-c2cc3nc(S(=O)(=O)Cc4ccccc4)sc3cc2Cl)c(=O)n1C(F)F [Compound 37]
Herbicidal activity Amaranthus retroflexus (inhibition level) (Amaranthus retroflexus): C (60 ≦ C < 80%) | Herbicidal activity Brassica juncea (inhibition level) (Brassica juncea): D (50 ≦ D < 60%) | Herbicidal activity Chenopodium album (inhibition level) (Chenopodium album): A (90 ≦ A ≦ 100%) | Herbicidal activity Digiatria sanguinalis (inhibition level) (Digiatria sanguinalis): C (60 ≦ C < 80%) | Herbicidal activity Echinochloa crusgalli (inhibition level) (Echinochloa crusgalli): D (50 ≦ D < 60%) | Herbicidal activity Setaria viridis (inhibition level) (Setaria viridis): E (E < 50%)

Cc1nn(-c2cc3nc(S(=O)(=O)Cc4c(F)cccc4F)sc3cc2Cl)c(=O)n1C(F)F [Compound 38]
Herbicidal activity Amaranthus retroflexus (inhibition level) (Amaranthus retroflexus): C (60 ≦ C < 80%) | Herbicidal activity Brassica juncea (inhibition level) (Brassica juncea): D (50 ≦ D < 60%) | Herbicidal activity Chenopodium album (inhibition level) (Chenopodium album): C (60 ≦ C < 80%) | Herbicidal activity Digiatria sanguinalis (inhibition level) (Digiatria sanguinalis): D (50 ≦ D < 60%) | Herbicidal activity Echinochloa crusgalli (inhibition level) (Echinochloa crusgalli): C (60 ≦ C < 80%) | Herbicidal activity Setaria viridis (inhibition level) (Setaria viridis): B (80 ≦ B < 90%)
